Reference: PubChem BioAssay (NCI)
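GI50 = concentration required for 50% inhibition of growth. The concentration for full growth arrest is given as TGI.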

Experiments:
Assay in all cases: NCI anticancer screen, dose series, 384-well format
[1] = tested on: NCI-H226 lung
[2] = tested on: NCI-H23 lung
[3] = tested on: MDA-MB-435 melanoma
[4] = tested on: SNB-19 CNS
[5] = tested on: KM12 colon
[6] = tested on: UACC-62 melanoma
[7] = tested on: NCI-H522 lung
[8] = tested on: MALME-3M melanoma
[9] = tested on: HCT-15 colon
[10] = tested on: HT29 colon
[11] = tested on: SF-539 CNS
[12] = tested on: A498 renal
[13] = tested on: OVCAR-8 ovarian
[14] = tested on: SNB-75 CNS
[15] = tested on: SK-MEL-5 melanoma
[16] = tested on: T-47D breast
[17] = tested on: UACC-257 melanoma
[18] = tested on: SW-620 colon
[19] = tested on: NCI-H460 NSCLC
[20] = tested on: SK-MEL-28 melanoma
[21] = tested on: M14 melanoma
[22] = tested on: K-562 leukemia
[23] = tested on: TK-10 renal
[24] = tested on: SK-MEL-2 melanoma
[25] = tested on: MDA-MB-231 breast
[26] = tested on: 786-0 renal
[27] = tested on: MDA-MB-468 breast
[28] = tested on: MCF7 breast
[29] = tested on: IGROV1 ovarian
[30] = tested on: HS 578T breast
[31] = tested on: NCI-H322M lung
[32] = tested on: MOLT-4 leukemia
[33] = tested on: A549 NSCLC
[34] = tested on: BT-549 breast
[35] = tested on: COLO 205 colon
[36] = tested on: UO-31 renal
[37] = tested on: OVCAR-5 ovarian
[38] = tested on: SF-295 CNS
[39] = tested on: SR leukemia
[40] = tested on: EKVX NSCLC
[41] = tested on: HOP-62 NSCLC
[42] = tested on: CAKI-1 renal
[43] = tested on: HCT-116 colon
[44] = tested on: HOP-92 NSCLC
[45] = tested on: DU-145 prostate
[46] = tested on: OVCAR-3 ovarian
[47] = tested on: SF-268 CNS
[48] = tested on: ACHN renal
[49] = tested on: OVCAR-4 ovarian
[50] = tested on: SN12C renal
[51] = tested on: HL-60(TB) leukemia
[52] = tested on: U251 glioblastoma
[53] = tested on: SK-OV-3 ovarian
[54] = tested on: RXF 393 renal
[55] = tested on: PC-3 prostate

`COc1cc(F)c(F)c(Nc2ccc(I)cc2F)c1NS(=O)(=O)C1(CC(O)CO)CC1` (stereo not given) was tested, and the GI50 [1] was 14.6 µM, the TGI [1] was 31.9 µM and the GI50 [2] was 13.7 µM. For the same compound, the TGI [2] was 32.4 µM, the GI50 [3] was 6.29 µM and the TGI [3] was 20.1 µM. For the same compound, the GI50 [4] was 22.3 µM, the TGI [4] was 62.9 µM and the GI50 [5] was 16.1 µM. For the same compound, the TGI [5] was 30 µM, the GI50 [6] was 3.82 µM and the TGI [6] was 14 µM. For the same compound, the GI50 [7] was 15.4 µM, the TGI [7] was 29.4 µM and the GI50 [8] was 2.12 µM. The TGI [8] was 6.94 µM, the GI50 [9] was 20.5 µM and the TGI [9] was 48.9 µM. For the same compound, the GI50 [10] was 10.4 µM, the TGI [10] was 22.5 µM and the GI50 [11] was 15 µM. For the same compound, the TGI [11] was 29.5 µM, the GI50 [12] was 16.1 µM and the TGI [12] was 31 µM. The GI50 [13] was 23.1 µM, the TGI [13] was 58.3 µM and the GI50 [14] was 15 µM. The TGI [14] was 31.4 µM, the GI50 [15] was 7.62 µM and the TGI [15] was 20.5 µM. It also gave a GI50 [16] of 21.2 µM, a TGI [16] of 81.6 µM and a GI50 [17] of 4.81 µM. The TGI [17] was 18.1 µM, the GI50 [18] was 15.6 µM and the TGI [18] was 41.3 µM. For the same compound, the GI50 [19] was 16.2 µM, the TGI [19] was 30.3 µM and the GI50 [20] was 3.18 µM. For the same compound, the TGI [20] was 13.3 µM, the GI50 [21] was 3.22 µM and the TGI [21] was 12.5 µM. The GI50 [22] was 14.3 µM, the TGI [22] was 27.7 µM and the GI50 [23] was 20.6 µM. The TGI [23] was 53.8 µM, the GI50 [24] was 12.9 µM and the TGI [24] was 25.6 µM. The GI50 [25] was 13.9 µM, the TGI [25] was 36.3 µM and the GI50 [26] was 16.9 µM. For the same compound, the TGI [26] was 31.7 µM, the GI50 [27] was 13.8 µM and the TGI [27] was 32.6 µM. It also gave a GI50 [28] of 14.8 µM, a TGI [28] of 30.4 µM and a GI50 [29] of 14.5 µM. It also gave a TGI [29] of 31.5 µM, a GI50 [30] of 14.8 µM and a TGI [30] of 28.1 µM. The GI50 [31] was 26 µM, the TGI [31] was 59.3 µM and the GI50 [32] was 14.1 µM. For the same compound, the TGI [32] was 27.1 µM, the GI50 [33] was 20 µM and the TGI [33] was 55 µM. The GI50 [34] was 14.1 µM, the TGI [34] was 27.2 µM and the GI50 [35] was 6.9 µM. The TGI [35] was 24.1 µM, the GI50 [36] was 13.4 µM and the TGI [36] was 32.2 µM. For the same compound, the GI50 [37] was 18.2 µM, the TGI [37] was 41 µM and the GI50 [38] was 16.1 µM. It also gave a TGI [38] of 30.4 µM, a GI50 [39] of 14.5 µM and a TGI [39] of 27.6 µM. For the same compound, the GI50 [40] was 19.5 µM, the TGI [40] was 44.4 µM and the GI50 [41] was 14.2 µM. The TGI [41] was 29.1 µM, the GI50 [42] was 16 µM and the TGI [42] was 70.1 µM. The GI50 [43] was 14.7 µM, the TGI [43] was 28.7 µM and the GI50 [44] was 14.7 µM. For the same compound, the TGI [44] was 28.6 µM, the GI50 [45] was 18.1 µM and the TGI [45] was 37.4 µM. For the same compound, the GI50 [46] was 13.9 µM, the TGI [46] was 27.1 µM and the GI50 [47] was 19.7 µM. It also gave a TGI [47] of 39.5 µM, a GI50 [48] of 17.1 µM and a TGI [48] of 33.9 µM. The GI50 [49] was 19.8 µM, the TGI [49] was 70 µM and the GI50 [50] was 16.9 µM. For the same compound, the TGI [50] was 35.3 µM, the GI50 [51] was 6.51 µM and the TGI [51] was 19.4 µM. It also gave a GI50 [52] of 16.6 µM, a TGI [52] of 34.3 µM and a GI50 [53] of 21.8 µM. It also gave a TGI [53] of 56.9 µM, a GI50 [54] of 13.4 µM and a TGI [54] of 26.9 µM. The GI50 [55] was 16.3 µM and the TGI [55] was 30.3 µM.
